According to patent US8563567B2, “Substituted heterocyclic compounds” (ArQule, Inc., priority 2009, dated 2013):
Where a name gives a salt, the structure may show the parent alone.

How the values were obtained:
[1] = system: MDA-MB-231; experiment: MTS assay, MDA-MB-231; type: cell-based; settings: Homo sapiens, MDA-MB-231, 72 h
Method: (§1) Cells were maintained at 37° C., 5% CO2 in RPMI media supplemented with 1% fetal bovine serum, penicillin/streptomycin and fungizone (Invitrogen). Cells were seeded into 96-well tissue culture plates at 3000 per well and cultured at 37° C. for 18 h. Test compounds were dissolved and diluted to 300× in DMSO then diluted 1:40 in DMEM. Cells were incubated with test compounds for 72 hours followed by incubation with tetrazolium compound (3-(4,5-dimethylthiazol-2-yl)-5-(3-carboxymethoxyphenyl)-2-(4-sulfophenyl)-2H-tetrazolium, inner salt; MTS) and the electron coupling reagent, phenazine methosulfate (PMS) for 4 hours. […] The ability of compounds to inhibit cell growth in this assay is correlated with the reduction of dehydrogenase enzyme activity found in metabolically active cells. The measurement of the absorbance of the formazan was assessed using an ENVISION™ (Perkin Elmer) microplate reader at 492 nm. The calculated IC50 value is the concentration of the test compound that causes a 50% decrease in the absorbance.

[2] = molecular target: T1, FGFR2 (N549H) (Homo sapiens, UniProt P21802, N549H); experiment: FGFR2 kinase activity assay (fluorescent ELISA); type: biochemical
T1 construct: purchased Millipore 14-742
T1 sequence (P21802 22-821 N549H): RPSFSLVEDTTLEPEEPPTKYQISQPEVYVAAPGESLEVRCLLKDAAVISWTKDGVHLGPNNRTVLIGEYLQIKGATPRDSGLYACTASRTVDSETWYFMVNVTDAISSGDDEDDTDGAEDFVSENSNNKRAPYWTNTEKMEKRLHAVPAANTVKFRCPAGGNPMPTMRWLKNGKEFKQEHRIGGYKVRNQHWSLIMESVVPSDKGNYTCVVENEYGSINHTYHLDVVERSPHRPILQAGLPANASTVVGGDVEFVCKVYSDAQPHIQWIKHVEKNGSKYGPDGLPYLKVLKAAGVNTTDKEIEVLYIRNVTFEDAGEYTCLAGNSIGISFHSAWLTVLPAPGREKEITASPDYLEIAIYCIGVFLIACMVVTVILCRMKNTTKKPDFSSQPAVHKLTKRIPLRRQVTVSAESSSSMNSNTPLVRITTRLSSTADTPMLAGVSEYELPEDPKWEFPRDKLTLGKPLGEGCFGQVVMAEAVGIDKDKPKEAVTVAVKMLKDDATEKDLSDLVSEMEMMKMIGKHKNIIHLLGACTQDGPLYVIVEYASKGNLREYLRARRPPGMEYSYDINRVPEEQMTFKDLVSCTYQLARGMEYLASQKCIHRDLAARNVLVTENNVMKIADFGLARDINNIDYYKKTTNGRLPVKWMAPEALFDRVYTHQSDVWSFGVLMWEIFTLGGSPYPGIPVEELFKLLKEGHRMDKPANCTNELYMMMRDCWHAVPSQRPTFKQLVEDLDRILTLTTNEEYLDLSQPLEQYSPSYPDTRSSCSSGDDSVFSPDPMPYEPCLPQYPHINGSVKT
Method: The enzymatic assays described herein are conducted according to the following procedures from commercially available reagents. In one, non limiting, example, a fluorescent ELISA assay is used to identify and characterize inhibitors of FGFR2 kinase as described herein. This heterogeneous assay utilizes a biotinylated peptide with a tyrosine motif as a substrate and an anti-phospho-tyrosine antibody to measure phosphorylation of the substrate. The reaction is initiated by adding the test compound, 37 μM Pyk2 substrate (Midwest Biotech, Cat. # MBT2383), 12.5 μM ATP (Roche, Cat. #11 140 965 001) and 0.5 μM FGFR2 enzyme (Millipore, Cat. #14-742) sequentially to a non-binding polypropylene V-well plate. All reagents are in an assay buffer consisting of: 50 mM Tris-HCL, 0.02 mg/ml BSA, 10 mM MgCl2, 0.1 mM Na3VO4, 1 mM EGTA, 75 μM ATP, 0.01% NP-40, 2 mM DTT and 10% glycerol. The reaction is incubated for 60 minutes. As the reaction proceeds, FGFR2 phosphorylates tyrosines in the peptide. The reaction mixture is then moved to a blocked streptavidin-coated Nunc Maxisorb plate (coated with 100 ng streptavidin from Pierce (Cat. #15-124) per well), allowing for the capture of the biotinylated peptide. Peptides are captured for 30 minutes at room temperature, the phosphorylation of peptides continues during this phase. The reaction is stopped by washing the streptavidin-coated plate 6 times with TBST. Phosphorylated peptide is detected by adding anti-phospho-tyrosine antibody (Cell Signaling, Cat. #9411, diluted 1:3000) to the streptavidin-coated plate. Unbound anti-phospho-tyrosine antibody is removed by washing the streptavidin-coated plate 6 times with TBST. Secondary detection is performed using alkaline phosphatase tagged goat anti-mouse antibody (Pierce, Cat. #31320, diluted 1:4000) for one hour. Unbound secondary antibody is removed by washing the streptavidin-coated plate 6 times with TBST. The fluorescent readout is initiated by adding to the streptavidin-coated plate Promega Attophos substrate (Promega, Cat. # S1000, dilution=6 mg/10 ml), which, when dephosphorylated by alkaline phosphatase, emits a fluorescent signal of 595 nm in wavelength when excited by a signal of 400 nm in wavelength. The reading of the 595 nm signal is done on the Perkin Elmer Envision system. Compounds which prevent FGFR2 from phosphorylating the peptide result in a lower fluorescent signal. The 595 nm fluorescent signal is directly proportional to the activity of FGFR2. Thus, the inhibition of FGFR2 by compounds is monitored by the decrease in the 595 nm fluorescent signal.

[3] = molecular target: Abl (T315I) (Homo sapiens, UniProt P00519, T315I); experiment: Abl kinase activity assay (fluorescent ELISA, AblTide substrate); type: biochemical
Method: The disclosed compounds were assayed for their ability to inhibit the activity of ABL kinase. Nunc Maxisorb plates are coated with streptavidin by overnight incubation with 100 μL per well of 1 μg/mL streptavidin in DPBS. Prior to the start of the experiment, the plates are washed with TBST (3×200 μL) and blocked for at least 3 hours by adding 150 μL of 5% BSA/TBST. The plates are washed with TBST (3×200 μL/well) and left dry immediately before the capture step.
The test articles and controls (Gleevec) are prepared using the following assay buffer @ 10× desired final concentration (50 mM Tris pH 7.0, 0.02 mg/ml BSA, 10 mM MgCl2, 0.1 mM Na3VO4, 1 mM EGTA, 0.01% NP-40, 1 mM DTT in 10% glycerol/water). In a reaction plate are added rapidly 5 μL test article (or control) and 30 μL ABL or ABL T315I (0.089 nM final concentration, in the above buffer). The plate is incubated for 20 minutes. To the reaction plate is added ATP (100 μM final concentration) and AblTide (128 nM final concentration) in a volume of 15 μL. The plate is incubated at room temperature for one hour.
From the reaction plate, 40 μL is transferred to the streptavidin coated plate. The capture plate is incubated at room temperature for 30 minutes then washed 3× with TBST. To the capture plate is added 100 μL/well of Cell Signaling anti-phospho tyrosine at a dilution of 1:3000 in 2% BSA/TBST. The plate is incubated for two hours at room temperature then washed 3× with TBST. To the capture plate is added 100 μL/well of Alkaline Phosphatase Tagged Goat anti Mouse Antibody at a dilution of 1:4000 in 2% BSA/TBST. The plate is incubated for one hour at room temperature then washed 3× with TBST.
The fluorescent readout was initiated by the addition of 100 μL/well of Attophos reagent (6 mg/10 mL). The reading was done on the Perkin Elmer Envision system.

[4] = system: DLD-1; experiment: MTS assay, DLD-1; type: cell-based; settings: Homo sapiens, DLD-1, 72 h
Method: as §1

melting point | Compound | other results
192 to 194 °C | Cl.c1cc2c3c(c1)c(-c1ccnc(NCC4CCNCC4)n1)cn3CCC2 | –
198 to 200 °C | Cl.c1cc2c3c(c1)c(-c1nnnn1C1CCNCC1)cn3CCC2 | –
170 to 172 °C | CCOC(=O)CNC(=O)N1CCC(CNc2nccc(-c3cn4c5c(cccc35)CCC4)n2)CC1 (as salt: trifluoroacetate) [Compound 34, ethyl 2-(4-((4-(5,6-dihydro-4H-pyrrolo[3,2,1-ij]quinolin-1-yl)pyrimidin-2-ylamino)methyl)piperidine-1-carboxamido)acetate] | –
140 to 142 °C | O=S(=O)(c1ccc(Cl)cc1)N1CCC(CNc2nccc(-c3cn4c5c(cccc35)CCC4)n2)CC1 (as salt: trifluoroacetate) [Compound 35, N-((1-(4-chlorophenylsulfonyl)piperidin-4-yl)methyl)-4-(5,6-dihydro-4H-pyrrolo[3,2,1-ij]quinolin-1-yl)pyrimidin-2-amine] | –
170 to 172 °C | CC(C)(C)C(=O)N1CCC(CNc2nccc(-c3cn4c5c(cccc35)CCC4)n2)CC1 (as salt: trifluoroacetate) [Compound 36, 1-(4-((4-(5,6-dihydro-4H-pyrrolo[3,2,1-ij]quinolin-1-yl)pyrimidin-2-ylamino)methyl)piperidin-1-yl)-2,2-dimethylpropan-1-one] | –
– | O=c1[nH][nH]c(-c2ccc3ccccc3c2)c1-c1cn2c3c(cccc13)CCC2 [Compound 13, 4-(5,6-dihydro-4H-pyrrolo[3,2,1-ij]quinolin-1-yl)-5-(2-naphthyl)-1,2-dihydro-3H-pyrazol-3-one] | inhibition at 10 µM [1]: 46%; inhibition at 30 µM [2]: 94%; inhibition at 10 µM [3]: 37%; inhibition at 10 µM [4]: 61%
